PMC3997483, “Aminostyrylbenzofuran Directly Reduces Oligomeric Amyloid-β and Reverses Cognitive Deficits in Alzheimer Transgenic Mice” (PLoS ONE, 2014)

Assays:
[1] = Pharmacokinetics IV/PO in monkeys; format: in vivo, cynomolgus monkeys; settings: for AUC(0-t): read-out: AUC0–24h
Experimental: Pharmacokinetics profile of KMS88009 was obtained using ICR mice, SD rats, beagle dogs and cynomolgus monkeys. Animals were fasted overnight before KMS88009 administration. Mice were divided into 2 groups to receive KMS88009 as a single dose of 2.1 mg/kg intravenous (IV) bolus or 10 mg/kg orally (PO) by gavage. Additionally, KMS88009 was administered orally to estimate the BBB penetration in mice (10, 30 and 100 mg/kg). […] Dog received KMS88009 either as an IV bolus (1 mg/kg) via the great saphenous vein or by oral gavage (4 mg/kg). […] Vehicle for IV and PO administration was DMSO/tween-20/saline (3.3∶19.8∶79.6). […]. Brain samples were weighed and Daunce-homogenized in 10-fold volume of ice-chilled 4% bovine serum albumin (BSA) solution at room temperature. Plasma and brain homogenates were kept frozen at −70°C until analysis. The levels of KMS88009 were determined by the LC-MS/MS analysis. Pharmacokinetic parameters, time to the maximum concentration (Tmax), maximum concentration (Cmax), elimination half-life (T1/2), volume of distribution (Vd), clearance (Cl) and mean residual time (MRT), of KMS88009 were calculated based on plasma concentration-time data by a non-compartmental method using WinNonlin Version 5.2 (Pharsight, USA). Area under the curve from 0 to 24 hr (AUC0-24h) and area under the curve from 0 to infinity (AUCINF) were obtained by linear and log linear trapezoidal summations.

[2] = Pharmacokinetics IV/PO in mice; format: in vivo, ICR mice; settings: for AUC(0-t): read-out: AUC0–24h
Experimental: Pharmacokinetics profile of KMS88009 was obtained using ICR mice, SD rats, beagle dogs and cynomolgus monkeys. Animals were fasted overnight before KMS88009 administration. Mice were divided into 2 groups to receive KMS88009 as a single dose of 2.1 mg/kg intravenous (IV) bolus or 10 mg/kg orally (PO) by gavage. Additionally, KMS88009 was administered orally to estimate the BBB penetration in mice (10, 30 and 100 mg/kg). […] Dog received KMS88009 either as an IV bolus (1 mg/kg) via the great saphenous vein or by oral gavage (4 mg/kg). KMS88009 was administrated to monkeys as an IV bolus (1 mg/kg) via the femoral vein or by oral gavage (4 mg/kg). Vehicle for IV and PO administration was DMSO/tween-20/saline (3.3∶19.8∶[…]). […]. Brain samples were weighed and Daunce-homogenized in 10-fold volume of ice-chilled 4% bovine serum albumin (BSA) solution at room temperature. Plasma and brain homogenates were kept frozen at −70°C until analysis. The levels of KMS88009 were determined by the LC-MS/MS analysis. Pharmacokinetic parameters, time to the maximum concentration (Tmax), maximum concentration (Cmax), elimination half-life (T1/2), volume of distribution (Vd), clearance (Cl) and mean residual time (MRT), of KMS88009 were calculated based on plasma concentration-time data by a non-compartmental method using WinNonlin Version 5.2 (Pharsight, USA). Area under the curve from 0 to 24 hr (AUC0-24h) and area under the curve from 0 to infinity (AUCINF) were obtained by linear and log linear trapezoidal summations.

[3] = Dissociation constant (pKa), GLpKa titration; format: physicochemical; settings: aqueous 150 mM NaCl solution
Experimental: Dissociation constant (pKa) and partition coefficient (log P) Dissociation constant (pKa) and partition coefficient (log P) of KMS88009 were measured by a pH-method using GLpKa (Sirius, UK). pKa was measured by titrating KMS88009 solution and calculated from the shape of the titration curve. […] Log P of KMS88009 was calculated by a two-phase acid-base titration in a mixture of water and octanol. Three separate potentiometric titrations of KMS88009 were carried out at 23 ℃ in various octanol-water (0.15 M KCl) mixtures (0.5% to 50% octanol). The initial pH was adjusted to 10.0 with standardized 0.5 M NaOH prior to each titration. Titrations were performed with standardized 0.5 M HCl to pH 1.8. The pKa and log P values were calculated using RefinementPro software (Sirius, UK). Values are expressed as the mean ± SD of 3 independent experiments.

[4] = cynomolgus monkey, plasma, monkey IV 0.77 mg/kg
[5] = cynomolgus monkey, plasma, monkey PO 5.6 mg/kg
[6] = cynomolgus monkey, monkey IV 0.77 mg/kg, plasma
[7] = cynomolgus monkey, monkey PO 5.6 mg/kg, plasma
[8] = ICR, plasma, mouse IV 2.1 mg/kg
[9] = ICR, mouse IV 2.1 mg/kg, plasma

Question: With `COc1ccc2cc(C=Cc3ccc(N(C)C)cc3)oc2c1` [KMS88009, 6-methoxy-2-(4-dimethylaminostyryl) benzofuran] as the molecule, how does the MRT last [1, 4] read?
Answer: 3.6 ± 0.5 h

Question: What about the Vd [1, 4] of the same molecule?
Answer: 4.4 ± 1.1 L/kg

Question: What about the clearance [1, 4] of the same molecule?
Answer: 8.33 mL/min/kg

Question: What about the half-life [1, 4] of the same molecule?
Answer: 5.8 ± 0.8 h

Question: And the MRT last [1, 5]?
Answer: 5.9 ± 0.6 h

Question: What about the Tmax [1, 5] of the same molecule?
Answer: 2.7 ± 1.2 h

Question: And the half-life [1, 5]?
Answer: 4.3 ± 0.2 h

Question: What about the AUC(0-inf) [1, 6] of the same molecule?
Answer: 1590 ± 576 ng·h/mL

Question: What about the AUC(0-t) [1, 6] of the same molecule?
Answer: 1540 ± 550 ng·h/mL

Question: What about the AUC(0-inf) [1, 7] of the same molecule?
Answer: 3920 ± 1480 ng·h/mL

Question: What about the Cmax [1, 7] of the same molecule?
Answer: 505 ± 78.3 ng/mL

Question: What about the AUC(0-t) [1, 7] of the same molecule?
Answer: 3810 ± 1430 ng·h/mL

Question: And the BA ([1]; monkey PO 5.6 mg/kg vs IV 0.77 mg/kg)?
Answer: 34.1%

Question: And the MRT last [2, 8]?
Answer: 2.9 h

Question: What about the Vd [2, 8] of the same molecule?
Answer: 32.1 L/kg

Question: What about the clearance [2, 8] of the same molecule?
Answer: 63.3 mL/min/kg

Question: What about the half-life [2, 8] of the same molecule?
Answer: 5.9 h

Question: And the MRT last ([2]; ICR, plasma, mouse PO 10 mg/kg)?
Answer: 5.5 h

Question: And the Tmax ([2]; ICR, plasma, mouse PO 10 mg/kg)?
Answer: 1 h

Question: What about the half-life ([2]; ICR, plasma, mouse PO 10 mg/kg) of the same molecule?
Answer: 4.6 h

Question: And the AUC(0-inf) [2, 9]?
Answer: 1330 ng·h/mL

Question: And the AUC(0-t) [2, 9]?
Answer: 1300 ng·h/mL

Question: And the AUC(0-inf) ([2]; ICR, mouse PO 10 mg/kg, plasma)?
Answer: 6310 ng·h/mL

Question: And the Cmax ([2]; ICR, mouse PO 10 mg/kg, plasma)?
Answer: 1060 ng/mL

Question: And the AUC(0-t) ([2]; ICR, mouse PO 10 mg/kg, plasma)?
Answer: 6160 ng·h/mL

Question: And the BA ([2]; mouse PO 10 mg/kg vs IV […])?
Answer: 99.6%

Question: What about the pKa [3] of the same molecule?
Answer: 1.5 ± 0.12
